Results reported in ChEMBL document CHEMBL5346955, “Discovery of HPG1860, a Structurally Novel Nonbile Acid FXR Agonist Currently in Clinical Development for the Treatment of Nonalcoholic Steatohepatitis” (J Med Chem, 2023).

Columns and labels:
[1] = target: T1, Bile acid receptor (Homo sapiens, UniProt Q96RI1); test: Agonist activity at GST-tagged human FXR-LBD in presence of luorescein-SRC2-2 coactivator peptide by TR-FRET assay
T1 sequence (Q96RI1 whole entry): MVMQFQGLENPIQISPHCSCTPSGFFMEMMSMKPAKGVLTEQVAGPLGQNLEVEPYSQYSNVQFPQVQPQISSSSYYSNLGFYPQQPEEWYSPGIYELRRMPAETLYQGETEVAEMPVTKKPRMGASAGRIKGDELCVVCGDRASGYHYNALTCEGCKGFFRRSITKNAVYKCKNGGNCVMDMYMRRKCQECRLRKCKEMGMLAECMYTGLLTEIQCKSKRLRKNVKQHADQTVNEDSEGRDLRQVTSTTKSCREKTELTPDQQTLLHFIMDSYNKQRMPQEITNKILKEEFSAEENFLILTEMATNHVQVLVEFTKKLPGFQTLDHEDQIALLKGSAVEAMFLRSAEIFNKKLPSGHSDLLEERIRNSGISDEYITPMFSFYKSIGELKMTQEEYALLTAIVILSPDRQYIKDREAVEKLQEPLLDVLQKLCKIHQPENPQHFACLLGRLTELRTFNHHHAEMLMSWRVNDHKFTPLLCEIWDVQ

[2] = target: T1, Bile acid receptor; test: Agonist activity at human GAL4-FXR-LBD expressed in HEK293T cells assessed as transcriptional activity measured after 16 to 20 hrs by luciferase reporter gene assay; type: cell-based
[3] = Metabolic stability in human liver microsomes assessed as half life at 1 uM measured upto 120 mins by UPLC/MS/MS analysis; type: ADME, Microsome
[4] = Metabolic stability in rat liver microsomes assessed as half life at 1 uM measured upto 120 mins by UPLC/MS/MS analysis; type: ADME, Microsome
[5] = Metabolic stability in dog liver microsomes assessed as half life at 1 uM measured upto 120 mins by UPLC/MS/MS analysis; type: ADME, Canis lupus familiaris, Microsome
[6] = Metabolic stability in cynomolgus monkey liver microsomes assessed as half life at 1 uM measured upto 120 mins by UPLC/MS/MS analysis; type: ADME, Macaca fascicularis, Microsome

In the case of `COc1cc(C(=O)O)cc2sc(C3CCN(Cc4c(-c5c(Cl)cccc5Cl)noc4C(C)C)CC3)nc12`, the EC50 [1] is reported as 200 nM and the EC50 [2] is reported as > 5000 nM.
`COc1cc(C(=O)O)cc2sc(N3CCN(Cc4c(-c5c(Cl)cccc5Cl)noc4C4CC4)C[C@@H]3C)nc12` gave an EC50 [1] of 16 nM, an EC50 [2] of 124 nM and a half-life at 1 µM [3] of 5.11 h. It also gave a half-life at 1 µM [4] of 1.83 h, a half-life at 1 µM [5] of 0.832 h and a half-life at 1 µM [6] of 1.14 h.
With `CC(C)c1onc(-c2c(Cl)cccc2Cl)c1CN1CCN(c2cc3cc(C(=O)O)ccc3s2)CC1` the EC50 [2] was 1190 nM.
With `COc1cc(C(=O)O)cc2sc(N3CCN(Cc4c(-c5c(Cl)cccc5Cl)noc4C(C)C)CC3)nc12` the EC50 [1] was 31 nM and the EC50 [2] was 147 nM.
